Among the data in US10590113B2, “6-hydroxy-4-oxo-1,4-dihydropyrimidine-5-carboxamides as APJ agonists” (priority 2016, dated 2020) are EC50 values, retold here.

Like-named read-outs stand apart in the source and are kept apart here.

This test addresses T1, human APJ receptor (Homo sapiens, UniProt P35414).
T1 construct: expressed in transfected cells; host or cells: HEK293
T1 sequence (P35414 1-380): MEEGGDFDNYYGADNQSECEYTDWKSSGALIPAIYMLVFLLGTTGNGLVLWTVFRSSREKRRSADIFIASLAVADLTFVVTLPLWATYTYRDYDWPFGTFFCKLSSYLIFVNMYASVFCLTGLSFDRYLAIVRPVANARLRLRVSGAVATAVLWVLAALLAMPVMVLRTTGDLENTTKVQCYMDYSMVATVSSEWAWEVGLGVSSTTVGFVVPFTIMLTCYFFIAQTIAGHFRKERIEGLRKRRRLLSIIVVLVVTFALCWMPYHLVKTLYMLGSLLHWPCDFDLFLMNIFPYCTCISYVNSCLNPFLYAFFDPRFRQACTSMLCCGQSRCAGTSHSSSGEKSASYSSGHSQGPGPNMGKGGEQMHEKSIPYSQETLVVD
The test is described as follows: Intracellular cAMP Accumulation Assay (APJ hcAMP, HTRF). The format is cell-based. In a few lines: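 Stably transfected HEK293 cells (5,000/well) incubated 30 min at room temperature with serially diluted compound, […] and 2 μM forskolin. cAMP measured by HTRF after 60 min with detection reagents, quantified against a cAMP standard curve; EC50 from variable-slope sigmoidal fit of inhibition of forskolin-stimulated cAMP.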
Background: Time-resolved FRET reads energy transfer from a long-lived donor to a nearby acceptor.

Where [1] appears, read: human APJ, intracellular cAMP accumulation, read-out: hAPJ cAMP EC50 Potency range.

As to `CCOCc1nc(=O)c(C(=O)N2CC[C@H](c3ccccc3)C2)c(O)n1-c1c(OC)cccc1OC` [Example 23, (R)-1-(2,6-dimethoxyphenyl)-2-(ethoxymethyl)-6-hydroxy-5-(3-phenylpyrrolidine-1-carbonyl)pyrimidin-4(1H)-one], the EC50 – broadly, the midpoint of the concentration-response curve – was 0.01 to 10 nM. In the case of `COc1cccc(OC)c1-n1c(CCC(C)C)nc(=O)c(C(=O)N2CC[C@@H](c3ccccc3)C2)c1O` [Example 24, (S)-1-(2,6-dimethoxyphenyl)-6-hydroxy-2-isopentyl-5-(3-phenylpyrrolidine-1-carbonyl)pyrimidin-4(1H)-one], the EC50 under setting [1] is 0.01 to 10 nM. For `C=CCCc1nc(=O)c(C(=O)N2CC[C@H](c3ccccc3)C2)c(O)n1-c1c(OC)cccc1OC` [Example 27, (R)-2-(but-3-en-1-yl)-3-(2,6-dimethoxyphenyl)-6-hydroxy-5-(3-phenylpyrrolidine-1-carbonyl)pyrimidin-4(3H)-one], the EC50 was 0.01 to 10 nM. For `CCOCc1nc(=O)c(C(=O)N2CC[C@@H](c3ccccc3)C2)c(O)n1-c1c(OC)cccc1OC` [Example 29, (S)-1-(2,6-dimethoxyphenyl)-2-(ethoxymethyl)-6-hydroxy-5-(3-phenylpyrrolidine-1-carbonyl)pyrimidin-4(1H)-one], the EC50 is 0.01 to 10 nM.

`COc1cccc(OC)c1-n1c(CC2CC2)nc(=O)c(C(=O)N2CC[C@@H](c3ccccc3)C2)c1O` [Example 31, (S)-2-(cyclopropylmethyl)-3-(2,6-dimethoxyphenyl)-6-hydroxy-5-(3-phenylpyrrolidine-1-carbonyl)pyrimidin-4(3H)-one]: the EC50 under setting [1] is 0.01 to 10 nM.

On to `COc1cccc(OC)c1-n1c(CC2CC2)nc(=O)c(C(=O)N2CC[C@H](c3ccccc3)C2)c1O` [Example 32, (R)-2-(cyclopropylmethyl)-3-(2,6-dimethoxyphenyl)-6-hydroxy-5-(3-phenylpyrrolidine-1-carbonyl)pyrimidin-4(3H)-one], for which, under setting [1], the EC50 is 0.01 to 10 nM. Still for that read-out and setting: the same measure for `C=CCCc1nc(=O)c(C(=O)N2CC[C@H](c3ccccc3)C2)c(O)n1-c1c(C)cccc1OC` [Example 35, (R)-2-(but-3-en-1-yl)-6-hydroxy-3-(2-methoxy-6-methylphenyl)-5-(3-phenylpyrrolidine-1-carbonyl)pyrimidin-4(3H)-one]: 0.01 to 10 nM; for `COc1cccc(OC)c1-n1c(COC(C)(C)C)nc(=O)c(C(=O)N2CCC(c3ccc(F)cc3)C2)c1O` (stereo not shown) [Example 44, 2-[(tert-butoxy)methyl]-1-(2,6-dimethoxyphenyl)-5-[3-(4-fluorophenyl)pyrrolidine-1-carbonyl]-6-hydroxy-1,4-dihydropyrimidin-4-one]: 0.01 to 10 nM. Same read-out and setting: the result for `COc1cccc(OC)c1-n1c(COC(C)(C)C)nc(=O)c(C(=O)N2CC[C@H](c3ccccc3)C2)c1O` [Example 51, 2-[(tert-butoxy)methyl]-1-(2,6-dimethoxyphenyl)-6-hydroxy-5-[(3R)-3-phenylpyrrolidine-1-carbonyl]-1,4-dihydropyrimidin-4-one] reads 0.01 to 10 nM; that for `CCCCc1nc(=O)c(C(=O)N2Cc3ccc(F)cc3C2)c(O)n1-c1c(OC)cccc1OC` [Example 56, 2-butyl-1-(2,6-dimethoxyphenyl)-5-(5-fluoro-2,3-dihydro-1H-isoindole-2-carbonyl)-6-hydroxy-1,4-dihydropyrimidin-4-one], 0.01 to 10 nM; that for `CCCCc1nc(=O)c(C(=O)N2CC[C@H](NC(=O)OCc3ccccc3)C2)c(O)n1-c1c(OC)cccc1OC` [Example 58, benzyl N-[(3S)-1-[2-butyl-1-(2,6-dimethoxyphenyl)-6-hydroxy-4-oxo-1,4-dihydropyrimidine-5-carbonyl]pyrrolidin-3-yl]carbamate], 10 to 100 nM. On the same count and under the same terms, the result for `CCCCc1nc(=O)c(C(=O)N2CC[C@@H](OCc3ccccc3)C2)c(O)n1-c1c(OC)cccc1OC` [Example 59, 5-[(3R)-3-(benzyloxy)pyrrolidine-1-carbonyl]-2-butyl-1-(2,6-dimethoxyphenyl)-6-hydroxy-1,4-dihydropyrimidin-4-one] reads 0.01 to 10 nM; that for `CCCCc1nc(=O)c(C(=O)N2Cc3ccncc3C2)c(O)n1-c1c(OC)cccc1OC` [Example 60, 2-butyl-1-(2,6-dimethoxyphenyl)-6-hydroxy-5-{1H,2H,3H-pyrrolo[3,4-c]pyridine-2-carbonyl}-1,4-dihydropyrimidin-4-one], 10 to 100 nM.

For the molecule `CCCCc1nc(=O)c(C(=O)N2Cc3cccnc3C2)c(O)n1-c1c(OC)cccc1OC` [Example 61, 2-butyl-1-(2,6-dimethoxyphenyl)-6-hydroxy-5-{5H,6H,7H-pyrrolo[3,4-b]pyridine-6-carbonyl}-1,4-dihydropyrimidin-4-one], under setting [1], the EC50 lay in the range of 10 to 100 nM. On the same count and under the same terms, the same measure for `CCCCc1nc(=O)c(C(=O)N2CC[C@@H](NC(=O)OCc3ccccc3)C2)c(O)n1-c1c(OC)cccc1OC` [Example 62, benzyl N-[(3R)-1-[2-butyl-1-(2,6-dimethoxyphenyl)-6-hydroxy-4-oxo-1,4-dihydropyrimidine-5-carbonyl]pyrro1idin-3-yl]carbamate]: 10 to 100 nM; for `CCCCc1nc(=O)c(C(=O)N2CC[C@H](OCc3ccccc3)C2)c(O)n1-c1c(OC)cccc1OC` [Example 63, 5-[(3S)-3-(benzyloxy)pyrrolidine-1-carbonyl]-2-butyl-1-(2,6-dimethoxyphenyl)-6-hydroxy-1,4-dihydropyrimidin-4-one]: 0.01 to 10 nM. On the same count and under the same terms, the result for `CCCCc1nc(=O)c(C(=O)N2CC[C@H](OCc3ccccn3)C2)c(O)n1-c1c(OC)cccc1OC` [Example 64, 2-butyl-1-(2,6-dimethoxyphenyl)-6-hydroxy-5-[(3S)-3-[(pyridin-2-yl)methoxy]pyrrolidine-1-carbonyl]-1,4-dihydropyrimidin-4-one] reads 0.01 to 10 nM.

For `CCCCc1nc(=O)c(C(=O)N2Cc3ccc(C#N)cc3C2)c(O)n1-c1c(OC)cccc1OC` [Example 65, 2-[2-butyl-1-(2,6-dimethoxyphenyl)-6-hydroxy-4-oxo-1,4-dihydropyrimidine-5-carbonyl]-2,3-dihydro-1H-isoindole-5-carbonitrile], under setting [1], the EC50 fell in the range of 0.01 to 10 nM.

On to `CCCCc1nc(=O)c(C(=O)N2Cc3ccccc3C2)c(O)n1-c1c(OC)cccc1OC` [Example 66, 2-butyl-5-(2,3-dihydro-1H-isoindole-2-carbonyl)-1-(2,6-dimethoxyphenyl)-6-hydroxy-1,4-dihydropyrimidin-4-one], for which the EC50 under setting [1] is 0.01 to 10 nM. Regarding `CCCCc1nc(=O)c(C(=O)N2CCN(Cc3cccc(F)c3)CC2)c(O)n1-c1c(OC)cccc1OC` [Example 69, 2-butyl-1-(2,6-dimethoxyphenyl)-5-{4-[(3-fluorophenyl)methyl]piper-azine-1-carbonyl}-6-hydroxy-1,4-dihydropyrimidin-4-one], under setting [1], the EC50 was 0.01 to 10 nM. Regarding `CCCCc1nc(=O)c(C(=O)N2CCC(c3ccncc3)CC2)c(O)n1-c1c(OC)cccc1OC` [Example 71, 2-butyl-1-(2,6-dimethoxyphenyl)-6-hydroxy-5-[4-(pyridin-4-yl)piperidine-1-carbonyl]-1,4-dihydropyrimidin-4-one], the EC50 under setting [1] is 0.01 to 10 nM. Still for that read-out and setting: the result for `CCCCc1nc(=O)c(C(=O)N2CCC(c3ccccc3)CC2)c(O)n1-c1c(OC)cccc1OC` [Example 72, 2-butyl-1-(2,6-dimethoxyphenyl)-6-hydroxy-5-(4-phenylpiperidine-1-carbonyl)-1,4-dihydropyrimidin-4-one] reads 10 to 100 nM; that for `CCCCc1nc(=O)c(C(=O)N2CCC(c3ccc(F)cc3)CC2)c(O)n1-c1c(OC)cccc1OC` [Example 74, 2-butyl-1-(2,6-dimethoxyphenyl)-5-[4-(4-fluorophenyl)piperidine-1-carbonyl]-6-hydroxy-1,4-dihydropyrimidin-4-one], 10 to 100 nM.

As to `CCCCc1nc(O)c(C(=O)N2CC[C@@H](c3ccccc3)C2)c(=O)n1-c1c(CC)cccc1CC` [Example 86, 2-butyl-3-(2,6-diethylphenyl)-6-hydroxy-5-[(3S)-3-phenylpyrrolidine-1-carbonyl]-3,4-dihydropyrimidin-4-one], the EC50 fell in the range of 0.01 to 10 nM.

As to `CCCCc1nc(=O)c(C(=O)N2CCC(c3ccc(F)cc3)C2)c(O)n1-c1c(OC)cccc1OC` (stereo not shown) [Example 87, 2-butyl-3-(2,6-dimethoxyphenyl)-5-[3-(4-fluorophenyl)pyrrolidine-1-carbonyl]-6-hydroxy-3,4-dihydropyrimidin-4-one], the EC50 under setting [1] is 0.01 to 10 nM. Still for that read-out and setting: the same measure for `CCCCc1nc(=O)c(C(=O)N2CC(c3cccc(Cl)c3)C2)c(O)n1-c1c(OC)cccc1OC` [Example 88, 2-butyl-5-[3-(3-chlorophenyl)azetidine-1-carbonyl]-3-(2,6-dimethoxyphenyl)-6-hydroxy-3,4-dihydropyrimidin-4-one]: 0.01 to 10 nM. With `CCCCc1nc(=O)c(C(=O)N2CC[C@H](c3ccccc3)C2)c(O)n1-c1c(CC)cccc1CC` [Example 90, 2-butyl-3-(2,6-diethylphenyl)-6-hydroxy-5-[(3R)-3-phenylpyrrolidine-1-carbonyl]-3,4-dihydropyrimidin-4-one], the EC50 lay within 0.01 to 10 nM. As for `COc1cccc(OC)c1-n1c(CCC2CC2)nc(=O)c(C(=O)N2CC[C@H](c3ccccc3)C2)c1O` [Example 96, 2-(2-cyclopropylethyl)-1-(2,6-dimethoxyphenyl)-6-hydroxy-5-[(3R)-3-phenylpyrrolidine-1-carbonyl]-1,4-dihydropyrimidin-4-one], the EC50 under setting [1] lay in the range of 0.01 to 10 nM.
